Test results reported in patent US9303016B2, “Derivatives of aza adamantane and uses thereof” (CONNEXIOS LIFE SCIENCES PVT. LTD., priority 2011, dated 2016).

Target: T1, human full length HSD11β1 (Homo sapiens, UniProt P28845)
T1 construct: transient expression of human full length HSD11β1 expression vector; host or cells: CHO cells, transient transfection
Experiment: In Vitro HSD11β1 Inhibition Assay
Assay type: cell-based
Details: CHO cells transiently expressing human HSD11β1; 200 nM cortisone+500 uM NADPH overnight; cortisone to cortisol by LC/MS-MS; read-out: 11βHSD1 (IC50)
Description: In Vitro HSD11β1 Inhibition Assay:
CHO cells were maintained in Dulbecco's modified Eagle's medium/nutrient mixture F-12 containing 5% fetal bovine serum (v/v) and 2 mM glutamine. Cells were cultured at 37° C. with 5% CO2. For transient expression of human full length HSD11β1 expression vector (OriGene Technologies), cells were seeded at a density of 2×10^5 cells/well in a 6-well plate. Transfection was done using Turbofectin8 reagent (OriGene Technologies), according to the protocol provided with the reagent. After 24 hours post-transfection, cells were trypsinized and pooled together before they were re-seeding to 96-well plate at a density of 40000 cells/well. 24 hours after re-seeding, cells were incubated with 200 nM cortisone+500 uM NADPH (or along with small molecule inhibitors) overnight. The enzymatic activity or inhibition of enzyme activity was measured by estimating the conversion of cortisone to cortisol by LC/MS-MS method. The IC50 in nM was calculated from a 8 point log scale of concentration versus inhibition.

T1 sequence (P28845 whole entry): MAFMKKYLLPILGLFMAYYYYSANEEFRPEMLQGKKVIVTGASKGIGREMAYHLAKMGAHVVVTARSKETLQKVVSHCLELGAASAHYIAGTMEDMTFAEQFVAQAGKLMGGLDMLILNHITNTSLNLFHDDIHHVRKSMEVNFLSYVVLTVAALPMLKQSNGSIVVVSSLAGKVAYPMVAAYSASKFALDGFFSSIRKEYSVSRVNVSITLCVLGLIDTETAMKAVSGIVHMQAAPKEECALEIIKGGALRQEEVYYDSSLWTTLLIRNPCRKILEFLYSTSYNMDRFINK

With `CC(CC(=O)N1C2CC3CC1CC(O)(C3)C2)c1cn(CCO)c2cccc(C3CC3)c12` (stereo not shown) [Compound 80, 3-[4-cyclopropyl-1-(2-hydroxyethyl)-1H-indol-3-yl]-1-(5-hydroxy-2-azatricyclo[3.3.1.1^3,7]dec-2-yl)butan-1-one] the IC50 was greater than 250 nM.

`O=C(CC(c1ccccc1)c1c[nH]c2cccc(F)c12)N1C2CC3CC1CC(O)(C3)C2` (stereo not shown) [Compound 83, 3-(4-fluoro-1H-indol-3-yl)-1-(5-hydroxy-2-azatricyclo[3.3.1.1^3,7]dec-2-yl)-3-phenylpropan-1-one] gave an IC50 of less than 100 nM.

`CC(CC(=O)N1C2CC3CC1CC(O)(C3)C2)c1nc2ccccc2s1` (stereo not shown) [Compound 84, 3-(1,3-benzothiazol-2-yl)-1-(5-hydroxy-2-azatricyclo[3.3.1.1^3,7]dec-2-yl)butan-1-one] was tested, and the IC50 was 200 to 250 nM.

In the case of `CC(CC(=O)N1C2CC3CC(C2)CC1C3)c1c[nH]c2ncccc12` (stereo not shown) [Compound 85], the IC50 is reported as less than 100 nM.

In the case of `CC(CC(=O)N1C2CC3CC1CC(O)(C3)C2)c1c[nH]c2ncccc12` (stereo not shown) [Compound 86, 1-(5-hydroxy-2-azatricyclo[3.3.1.1]dec-2-yl)-3-(1H-pyrrolo[2,3-b]pyridin-3-yl)butan-1-one], the IC50 is reported as greater than 250 nM.

`CC(CC(=O)N1C2CC3CC1CC(O)(C3)C2)c1c[nH]c2nccc(Cl)c12` (stereo not shown) [Compound 87, 3-(4-chloro-1H-pyrrolo[2,3-b]pyridin-3-yl)-1-(5-hydroxy-2-azatricyclo[3.3.1.1^3,7]dec-2-yl)butan-1-one] gave an IC50 of 150 to 200 nM.

`Cc1ccnc2[nH]cc(C(C)CC(=O)N3C4CC5CC3CC(O)(C5)C4)c12` (stereo not shown) [Compound 88, 1-(5-hydroxy-2-azatricyclo[3.3.1.1^3,7]dec-2-yl)-3-(4-methyl-1H-pyrrolo[2,3-b]pyridin-3-yl)butan-1-one] was tested, and the IC50 was greater than 250 nM.

In the case of `CC(C)C(CC(=O)N1C2CC3CC1CC(O)(C3)C2)c1c[nH]c2ncccc12` (stereo not shown) [Compound 90, 1-(5-hydroxy-2-azatricyclo[3.3.1.1^3,7]dec-2-yl)-4-methyl-3-(1H-pyrrolo[2,3-b]pyridin-3-yl)pentan-1-one], the IC50 is reported as greater than 250 nM.

In the case of `CC(CC(=O)N1C2CC3CC1CC(C(=O)O)(C3)C2)c1c[nH]c2ncccc12` (stereo not shown) [Compound 91, 2-[3-(1H-pyrrolo[2,3-b]pyridin-3-yl)butanoyl]-2-azatricyclo[3.3.1.1^3,7]decane-5-carboxylic acid], the IC50 is reported as greater than 250 nM.

`CC(C)C(CC(=O)N1C2CC3CC1CC(C#N)(C3)C2)c1c[nH]c2ncccc12` (stereo not shown) [Compound 92, 2-[4-methyl-3-(1H-pyrrolo[2,3-b]pyridin-3-yl)pentanoyl]-2-azatricyclo[3.3.1.1^3,7]decane-5-carbonitrile] gave an IC50 greater than 250 nM.

`Cc1cccc2[nH]cc(C(CC(=O)N3C4CC5CC3CC(O)(C5)C4)c3ccc(F)cc3)c12` (stereo not shown) [Compound 93, 3-(4-fluorophenyl)-1-(5-hydroxy-2-azatricyclo[3.3.1.1^3,7]dec-2-yl)-3-(4-methyl-1H-indol-3-yl)propan-1-one] showed an IC50 greater than 250 nM.

With `O=C(CC(c1ccccc1)c1c[nH]c2cc(F)ccc12)N1C2CC3CC1CC(O)(C3)C2` (stereo not shown) [Compound 94, 3-(6-fluoro-1H-indol-3-yl)-1-(5-hydroxy-2-azatricyclo[3.3.1.1^3,7]dec-2-yl)-3-phenylpropan-1-one] the IC50 was less than 100 nM.

`O=C(CC(c1c[nH]c2cccc(F)c12)C1CC1)N1C2CC3CC1CC(O)(C3)C2` (stereo not shown) [Compound 95, 3-cyclopropyl-3-(4-fluoro-1H-indol-3-yl)-1-(5-hydroxy-2-azatricyclo[3.3.1.1^3,7]dec-2-yl)propan-1-one] showed an IC50 of 100 to 150 nM.

For `O=C(CC(c1ccc(F)cc1F)c1c[nH]c2ccccc12)N1C2CC3CC1CC(O)(C3)C2` (stereo not shown) [Compound 96, 3-(2,4-difluorophenyl)-1-(5-hydroxy-2-azatricyclo[3.3.1.1^3,7]dec-2-yl)-3-(1H-indol-3-yl)propan-1-one], the IC50 was 100 to 150 nM.

Compound `O=C(CC(c1ccc(F)cc1)c1c[nH]c2cccc(F)c12)N1C2CC3CC1CC(O)(C3)C2` (stereo not shown) [Compound 99, 3-(4-fluoro-1H-indol-3-yl)-3-(4-fluorophenyl)-1-(5-hydroxy-2-azatricyclo[3.3.1.1^3,7]dec-2-yl)propan-1-one] has an IC50 of less than 100 nM.

`Cc1cccc2[nH]cc(C(C)CC(=O)N3C4CC5CC3CC(F)(C5)C4)c12` (stereo not shown) [Compound 104, 1-(5-fluoro-2-azatricyclo[3.3.1.1^3,7]dec-2-yl)-3-(4-methyl-1H-indol-3-yl)butan-1-one] showed an IC50 of less than 100 nM.

`CC(CC(=O)N1C2CC3CC(C2)CC1C3)c1nc2ccccc2s1` (stereo not shown) [Compound 105, 1-(2-azatricyclo[3.3.1.1^3,7]dec-2-yl)-3-(1,3-benzothiazol-2-yl)butan-1-one] was tested, and the IC50 was less than 100 nM.

`CC(CC(=O)N1C2CC3CC1CC(F)(C3)C2)c1nc2ccccc2s1` (stereo not shown) [Compound 106, 3-(1,3-benzothiazol-2-yl)-1-(5-fluoro-2-azatricyclo[3.3.1.1^3,7]dec-2-yl)butan-1-one] gave an IC50 of 100 to 150 nM.

For `O=C(CC(c1ccccc1)c1nc2ccccc2s1)N1C2CC3CC1CC(O)(C3)C2` (stereo not shown) [Compound 107, 3-(1,3-benzothiazol-2-yl)-1-(5-hydroxy-2-azatricyclo[3.3.1.1^3,7]dec-2-yl)-3-phenylpropan-1-one], the IC50 was greater than 250 nM.

`O=C(CC(c1ccccc1)c1nc2ccccc2s1)N1C2CC3CC1CC(F)(C3)C2` (stereo not shown) [Compound 108, 3-(1,3-benzothiazol-2-yl)-1-(5-fluoro-2-azatricyclo[3.3.1.1^3,7]dec-2-yl)-3-phenylpropan-1-one] showed an IC50 greater than 250 nM.

`COc1ccc2[nH]cc(C(C)CC(=O)N3C4CC5CC3CC(O)(C5)C4)c2c1` (stereo not shown) [Compound 109, 1-(5-hydroxy-2-azatricyclo[3.3.1.1^3,7]dec-2-yl)-3-(5-methoxy-1H-indol-3-yl)butan-1-one] was tested, and the IC50 was greater than 250 nM.

In the case of `Cc1ccc2[nH]cc(C(C)CC(=O)N3C4CC5CC3CC(O)(C5)C4)c2c1` (stereo not shown) [Compound 110, 1-(5-hydroxy-2-azatricyclo[3.3.1.1^3,7]dec-2-yl)-3-(5-methyl-1H-indol-3-yl)butan-1-one], the IC50 is reported as greater than 250 nM.

`O=C(CC(c1ccccc1)c1c[nH]c2cccc(F)c12)N1C2CC3CC1CC(C(=O)O)(C3)C2` (stereo not shown) [Compound 111, 2-[3-(4-fluoro-1H-indol-3-yl)-3-phenylpropanoyl]-2-azatricyclo[3.3.1.1^3,7]decane-5-carboxylic acid] gave an IC50 greater than 250 nM.

With `O=C(CC(c1ccccc1)c1c[nH]c2cc(F)ccc12)N1C2CC3CC1CC(C(=O)O)(C3)C2` (stereo not shown) [Compound 112, 2-[3-(6-fluoro-1H-indol-3-yl)-3-phenylpropanoyl]-2-azatricyclo[3.3.1.1^3,7]decane-5-carboxylic acid] the IC50 was 200 to 250 nM.

With `Cc1[nH]c2ccc(F)cc2c1C(C)CC(=O)N1C2CC3CC1CC(O)(C3)C2` (stereo not shown) [Compound 113, 3-(5-fluoro-2-methyl-1H-indol-3-yl)-1-(5-hydroxy-2-azatricyclo[3.3.1.1^3,7]dec-2-yl)butan-1-one] the IC50 was greater than 250 nM.

`Cc1cccc2[nH]cc(CCC(=O)N3C4CC5CC3CC(O)(C5)C4)c12` [Compound 116, 1-(5-hydroxy-2-azatricyclo[3.3.1.1^3,7]dec-2-yl)-3-(4-methyl-1H-indol-3-yl)propan-1-one] showed an IC50 of 200 to 250 nM.

With `COc1cc2c(C(C)CC(=O)N3C4CC5CC3CC(O)(C5)C4)c[nH]c2cc1Cl` (stereo not shown) [Compound 117, 3-(6-chloro-5-methoxy-1H-indol-3-yl)-1-(5-hydroxy-2-azatricyclo[3.3.1.1^3,7]dec-2-yl)butan-1-one] the IC50 was greater than 250 nM.

For `CC(CC(=O)N1C2CC3CC1CC(C#N)(C3)C2)c1nc2ccccc2s1` (stereo not shown) [Compound 118, 2-[3-(1,3-benzothiazol-2-yl)butanoyl]-2-azatricyclo[3.3.1.1^3,7]decane-5-carbonitrile], the IC50 was greater than 250 nM.
